Experiments:
[1] = test system: PRL-3^+ SNU-484 orthotopic gastric tumors; experiment: Orthotopic gastric cancer model, SNU-484; type: in vivo, Balb/C nude mice
Method: Eight-week old male Balb/C nude mice obtained from the Biological Resource Centre (A*STAR, Singapore) were used for all animal models in this study. […] The stomach was taken out through the abdominal incision by surgical forceps, and cancer cells were injected into the subserosa layer. Subsequently, the stomach was placed back and the abdomen was sutured back in layers. […] The treatment regime commenced on day 2 post-inoculation of cancer cells in the gastric subserosa layer. […] PBS was used as a control in “untreated” mice. […] Tumor volumes were calculated using the formula: volume=0.4×tumor length×tumor width×tumor width.
10 μm-thick cryosection slides were fixed with 4% formalin for 20 min and incubated with 1% H2O2-PBS in the dark for 5 min. Washed slides were then blocked in PBS containing 10% goat serum and 1% BSA (Sigma) for 1 h at RT. Subsequently, slides were washed four times in PBS-0.05% Tween-20 with gentle shaking and incubated with goat anti-human labeled polymer-HRP (Dako) for 2 h before washing extensively and incubating with substrate-chromogen solution (Dako) for 10-20 min in the dark. Mounted slides were examined using a brightfield microscope (Olympus) and representative images were captured.

[2] = parameters: species or system Balb/C nude mice; details: mouse, in vivo
Method: WBC staining of mouse blood smears: After smearing a thin layer from a drop of fresh mouse blood on a glass slide, slides were baked at 37° C. for 1 h before flooding with modified Wright Giemsa stain (Sigma) for 1 min followed by washing with deionized water for 3 min. After drying, the stained slide was observed under microscope, with WBCs stained blue. Estimation of total WBC was performed under light microscopy (Olympus) by counting in ten visual fields in each slide and calculation using the equation WBCs/μl=(total number of counted WBC/number of fields)×2000. Full blood counts: Hematological analysis of mice samples was conducted by Quest Laboratories (Singapore).
We tested four treatment protocols: PBS control (Group 1), PRL3-zumab monotherapy (Group 2), PRL3-zumab+5-FU combination therapy (Group 3), or 5-FU monotherapy (Group 4). According to the treatment protocol, bi-weekly doses of PRL3-zumab (100 μg/dose) or 5-FU (30 mg/kg/dose) were administered individually, or in combination, intravenously into groups of nude mice carrying orthotopic PRL-3^+ SNU-484 gastric tumors.

advanced HCC = details: cited from earlier work
[3] = test system: PRL-3+ and PRL-3− cancer cells; experiment: In vitro cancer cell growth assay; type: cell-based; details: PRL-3+ and PRL-3− cells; PRL3-zumab up to 50 mg/mL

SMILES: O=c1[nH]cc(F)c(=O)[nH]1 [5-FU, 5-fluorouracil]
- mean tumor volume ([1]; four-group study, bi-weekly i.v. PRL3-zumab 100 μg/dose and/or 5-FU 30 mg/kg/dose, Day 28, n=5 per group): 1.76±0.52 cm^3
- numbers of infiltrating B cells and NK cells (immunofluorescence) ([1]; tumor sections, compared to untreated): lack of B or NK cell infiltration
- haematological profile (full blood counts) [2]: reduced neutrophil, lymphocyte, and monocyte counts
- overall animal activity [2]: reduction in overall animal activity
- reduction in peripheral WBC counts compared to control or PRL3-zumab monotherapy [2]: 5 fold

SMILES: CNC(=O)c1cc(Oc2ccc(NC(=O)Nc3ccc(Cl)c(C(F)(F)F)c3)cc2)ccn1 [Sorafenib]
- extended median survival (advanced HCC): 2.8 months

SMILES: N.N.[Cl][Pt][Cl] [cisplatin]
- cancer cell growth in vitro [3]: dose-dependent, nonspecific cell killing

From US11155636B2, “PRL3 antibody” (Agency for Science, Technology and Research, priority 2016, dated 2021)
